Experimental data: patent US5175100A, “Stereospecific resolution by hydrolysis of esters of 2-arylpropionic acids by liver enzymes” (Rhone-Poulenc, Inc., priority 1991, dated 1992)

Assays:
Type in all cases: biochemical
[1] = system: Liver acetone powder from Dog; test: Hydrolysis of ketoprofen esters by dog liver acetone powder; settings: Dog powder, 0.2 millimole ester, procedure of Example 1
Experimental: (§1) A solution of 50 mg of ketoprofen methyl ester in 0.2 ml of ethanol was added to 10 mg of each of liver acetone powder from various animal sources (described in Table 1) in 5 ml of 0.1M potassium phosphate buffer (pH 7.0) After shaking at room temperature for 24 hours, the reaction mixtures were acidified to pH 2.0 with 6(N) HCl and extracted with 10 ml of ethyl acetate. A portion of the ethyl acetate extract was analyzed by HPLC on a Partisil 5 ODS-3 RAC column (9.4 mm×100 mm, Whatman) using a mixture of methanol and 10 mM ammonium dihydrogen phospate (9:1) and monitored by UV at 254 nm to determine the percentages of acid produced in the reaction.
(§2) To determine the percentage of R- and S-acid, a portion of the ethyl acetate extract was converted to the amide derivative of the acid produced with R(+)-1-phenylethylamine as follows. The ethyl acetate extract (5 ml) was dried over sodium sulfate, filtered and cooled to 0° C. To the cold solution was added 0.2 ml of N-methylmorpholine followed by 0.2 ml of isobutyl chloroformate. After gentle shaking at 0° C. for 10 minutes, 0.2 ml of R(+)-1-phenylethylamine was added and the shaking was continued at 0° C. for 5 minutes and at room temperature for another 5 minutes. The reaction mixture was washed successively with water (5 ml), 1(N) HCl (5 ml), and water (5 ml) to provide the amide derivative in ethyl acetate solution. The ethyl acetate solution of the amide derivative was then analyzed by HPLC on the same column and same solvent mixture but with a different composition, i.e., a ratio of 6:4, and monitored by UV to determine the percentages of R- acid and S-acids produced by hydrolysis. The enantiomeric excess (EE) is defined as the difference in percent between the percent R- acid and the percent S-acid, the higher enantiomer being reported in the parenthesis in Table I.
(§3) Several esters of ketoprofen (0.2 millimole) with various alkyl groups of varying chain length were hydrolyzed using liver acetone powders from bovine, calf and dog by the procedure described in Example 1. The reaction mixtures were analyzed by the same procedures as described in Example 1 and the results obtained are summarized in Table II.

[2] = system: Liver acetone powder from Calf; test: Hydrolysis of ketoprofen esters by calf liver acetone powder; settings: Calf powder, 0.2 millimole ester, procedure of Example 1
Experimental: as §1, §2, §3

[3] = system: Liver acetone powder from Bovine; test: Hydrolysis of ketoprofen esters by bovine liver acetone powder; settings: Bovine powder, 0.2 millimole ester, procedure of Example 1
Experimental: as §1, §2, §3

`CCOC(=O)C(C)c1cccc(C(=O)c2ccccc2)c1` (stereo not drawn) [C-2] was tested, and the “EE(%) of R-Acid” value [1] was 65.0%, the “Percent of Acid R-Acid” value [1] was 82.5% and the “Percent of Acid S-Acid” value [1] was 17.5%. For the same compound, the “EE(%) of R-Acid” value [2] was 39.2%, the “Percent of Acid R-Acid” value [2] was 69.6% and the “Percent of Acid S-Acid” value [2] was 30.4%. The “EE(%) of R-Acid” value [3] was 40.6%, the “Percent of Acid R-Acid” value [3] was 70.3% and the “Percent of Acid S-Acid” value [3] was 29.7%.
In the case of `CCCCCCOC(=O)C(C)c1cccc(C(=O)c2ccccc2)c1` (stereo not drawn) [C-6], the “EE(%) of R-Acid” value [1] is reported as 35.8%, the “Percent of Acid R-Acid” value [1] is reported as 67.9% and the “Percent of Acid S-Acid” value [1] is reported as 32.1%. For the same compound, the “EE(%) of R-Acid” value [2] was 42.0%, the “Percent of Acid R-Acid” value [2] was 71.0% and the “Percent of Acid S-Acid” value [2] was 29.0%. The “EE(%) of R-Acid” value [3] was 45.4%, the “Percent of Acid R-Acid” value [3] was 72.7% and the “Percent of Acid S-Acid” value [3] was 27.3%.
With `CCCCCCCCOC(=O)C(C)c1cccc(C(=O)c2ccccc2)c1` (stereo not drawn) [C-8] the “EE(%) of R-Acid” value [1] was 41.4%, the “Percent of Acid R-Acid” value [1] was 70.7% and the “Percent of Acid S-Acid” value [1] was 29.3%. The “EE(%) of R-Acid” value [2] was 24.2%, the “Percent of Acid R-Acid” value [2] was 62.1% and the “Percent of Acid S-Acid” value [2] was 37.9%. For the same compound, the “EE(%) of R-Acid” value [3] was 55.8%, the “Percent of Acid R-Acid” value [3] was 77.9% and the “Percent of Acid S-Acid” value [3] was 22.1%.
